Patent US20190059368A1, “3,5-DIMETHOXYSTILBENE ANALOGS AND USES THEREOF” (The United States of America, as represented by the …, priority 2017, published 2019)
≈ marks a conversion by molar mass, not a printed value. Where two headings read alike, the source gives them in different places. Marks after values point to notes of the source that are not given here.

Assays:
Colletotrichum acutatum = experiment: Direct bioautography, antifungal; format: cell-based; conditions: Colletotrichum acutatum; 2 mM; 4 μl spotted (2 μl of the positive controls); average of 2 assays; read-out: zones of inhibition
Procedure: (§1) The analogs were tested for activity against Colletotrichum acutatum SIMMONDS, C. fragariae BROOKS, and C. gloeosporioides (PENZ) PENZ & SACC. in Penz., using a direct bioautography method as previously described by Tabanca et al. (Nat. Prod. Commun. 2008, 3, 1073) and Wang, et al. (J. Agric. Food Chem. 2013, 61, 4551). Technical grade commercial fungicide standards benomyl, cyprodinil, azoxystrobin, and captan were used at 0.9-1.61 μg/μl concentrations in 95% EtOH. After sample application, each TLC plate was subsequently sprayed with a spore suspension (3.0×10^5 spores/ml) of the fungus of interest and incubated in a moisture chamber for 4 days at 26° C. with a 12 hour photoperiod. Clear zones of fungal growth inhibition on the TLC plate indicated the presence of antifungal constituents in each extract or pure compound. The test compounds were prepared at 2 mM soln. in 95% EtOH, and 4 μl were spotted on the plates (2 μl of the positive controls).

C. fragariae = experiment: Direct bioautography, antifungal; format: cell-based, Colletotrichum fragariae; conditions: Colletotrichum fragariae; 2 mM; 4 μl spotted (2 μl of the positive controls); average of 2 assays; read-out: zones of inhibition
Procedure: as §1

C. gloeosporioides = experiment: Direct bioautography, antifungal; format: cell-based, Colletotrichum gloeosporioides; conditions: Colletotrichum gloeosporioides; 2 mM; 4 μl spotted (2 μl of the positive controls); average of 2 assays; read-out: zones of inhibition
Procedure: as §1

Colletotrichum species = experiment: Direct bioautography, antifungal (overall statement); format: cell-based, Colletotrichum sp.
Procedure: as §1

Ae. aegypti larvae = experiment: Larvicidal bioassay against 1-day-old Ae. aegypti larvae (screening and dose-response); format: in vivo, Aedes aegypti
Procedure: Analogs were screened for activity against Ae. aegypti larvae following a bioassay system described in Ali, A., et al. (J. Med. Entomol. 2014, 51, 824). Ae. aegypti larvae used in these studies were from a laboratory colony maintained at the Mosquito and Fly Research Unit at the Center for Medical, Agricultural and Veterinary Entomology, USDA-ARS, Gainesville, Fla. For larval bioassays, the eggs were hatched and the larvae were maintained at a temperature of 27±2° C. and 60±10% RH with a photoperiod regimen of 12:12 hour (Light:Dark). Five 1-day-old Ae. aegypti larvae were added into a droplet of H2O to each well of 24-well plates (BD Labware, Franklin Lakes, N.J., USA) by use of a disposable 22.5-cm Pasteur pipette. A quantity of 50 μl of larval diet (2% slurry of 3:2 beef liver powder (Now Foods, Bloomingdale, Ill., USA) and Brewer's yeast (Lewis Laboratories Ltd., Westport, Conn., USA) was added to each well using a Finnpipette stepper (Thermo Fisher, Vantaa, Finland). All chemicals tested were diluted in DMSO. A quantity of 11 μl of the test chemical was added to the labeled wells, while 11 μl of DMSO was added to control treatments. After the treatment application, the plates were swirled in clockwise and counterclockwise motions and front and back and side to side five times to ensure even mixing of the chemicals. Larval mortality was recorded 24 hours post-treatment. […] Three dosages, 100, 50, and 25 ppm, were used in the screening bioassay to determine the larvicidal activity and each treatment was replicated twice. […] Each treatment was replicated ten times. LC50 Values for larvicidal data were calculated using SAS, Proc Probit. Control mortality was corrected using the Abbott's formula.

[1] = test system: larvae of ORL and PR strains of Ae. aegypti; format: in vivo; conditions: for Percent Mortality: larvae, 24 h
Procedure: (§2) Further tests were performed on compounds 11 and 12 to determine their effect on larvae and adult mosquitoes. The compounds were tested in the standard bioassays using the Orlando (ORL), pesticide-susceptible strain and the Puerto Rico (PR), pyrethroid-resistant strain of Ae. aegypti. The ORL strain has been in continuous colony since 1952 with no pesticide exposure while the resistant PR strain was colonized from egg papers collected near San Juan, PR in June, 2012. The PR strain is available as a resistant reference strain through BEIResources/CDC. Mortality was determined in the larval assays at four different concentrations (1, 0.5, 0.25, and 0.1 μg/μl) and three concentrations for adults (6.25%, 3.125%, and 1.56%). Mortality was recorded 24 h post-application, and in all assays, a negative solvent and a positive control using permethrin were utilized; tests were done in triplicate. Assays were conducted according to published procedures as described in Wanner, J. et al. (Curr. Bioact. Compd. 2015, 11, 13).

[2] = test system: adults of ORL and PR strains of Ae. aegypti; experiment: Adult mosquito assay, ORL and PR strains; format: in vivo; conditions: both strains
Procedure: as §2

[3] = test system: Cryptococcus neoformans ATCC 90113; experiment: Antimicrobial microplate assay (modified CLSI); format: cell-based; conditions: Cryptococcus neoformans, ATCC90113; Cr. neoformans
Procedure: (§3) All organisms were obtained from the American Type Culture Collection (ATCC; Manassas, Va., USA) and included the fungi Cryptococcus neoformans ATCC 90113 and the bacteria Staphylococcus aureus ATCC 29213, methicillin-resistant S. aureus ATCC 33591 (MRSA), and Mycobacterium intracellulare ATCC 23068. All organisms were tested using modified versions of the CLSI (formerly NCCLS) methods. For all organisms excluding My. intracellulare, optical density was used to monitor growth. Medium supplemented with 5% AlamarBlue® (BioSource International, Camarillo, Calif., USA) was utilized for growth detection of My. intracellulare. Samples (dissolved in DMSO) were serially diluted in 20% DMSO/saline and transferred (10 μl) in duplicate to 96-well flat-bottom microplates. Inocula were prepared by correcting the OD630 of microbe suspensions in Sabouraud Dextrose for Cr. neoformans, cation-adjusted Mueller-Hinton (Difco) at pH 7.3 for Staphylococcus spp., and 5% AlamarBlue® (BioSource International) in Middlebrook 7H9 broth with OADC enrichment, pH=7.0 for My. intracellulare, to afford an assay volume of 200 μl and final target inocula of: Cr. neoformans.: b 1.5×10^3, My. intracellulare: 2.0×10^6, and Staphylococcus spp.,: 5.0×10^5 CFU/ml. Final sample test concentrations were 1/100th the DMSO stock concentration. Drug controls (Ciprofloxacin (ICN Biomedicals, Ohio, USA) for bacteria and Amphotericin B (ICN Biomedicals) for fungi) were included in each assay. All organisms were read at either 530 nm using the Biotek Powerwave XS plate reader (Bio-Tek Instruments, VT) or 544ex1590em (My. intracellulare) using the Polarstar Galaxy Plate Reader (BMG LabTechnologies, Germany) before and after incubation: Staphylococcus spp. at 35° C. for 16-20 h, Cr. neoformans at 35° C. for 70-74 h, and My. intracellulare at 37° C. and 10% CO2 for 70-74 h. IC50 Values (concentrations that afford 50% inhibition relative to controls) werecalculated using XLfit 4.2 software (IDBS, Alameda, Calif.) using fit model 201.

[4] = test system: Staphylococcus aureus ATCC 29213; experiment: Antimicrobial microplate assay (modified CLSI); format: cell-based; conditions: ATCC29213, S. aureus
Procedure: as §3, with “Drug controls (Ciprofloxacin (ICN Biomedicals, Ohio, USA) for bacteria and Amphotericin B (ICN Biomedicals) for fungi) were included in each assay.” left out

[5] = test system: methicillin-resistant S. aureus ATCC 33591 (MRSA); experiment: Antimicrobial microplate assay (modified CLSI); format: cell-based; conditions: Staphylococcus aureus
Procedure: as §3, with “Drug controls (Ciprofloxacin (ICN Biomedicals, Ohio, USA) for bacteria and Amphotericin B (ICN Biomedicals) for fungi) were included in each assay.” left out

[6] = test system: Mycobacterium intracellulare ATCC 23068; experiment: Antimicrobial microplate assay (modified CLSI, AlamarBlue); format: cell-based; conditions: ATCC23068, My. intracellulare
Procedure: as §3, with “Drug controls (Ciprofloxacin (ICN Biomedicals, Ohio, USA) for bacteria and Amphotericin B (ICN Biomedicals) for fungi) were included in each assay.” left out

[7] = 1-day-old larvae, mortality 24 hours post-treatment

## COc1cc(/C=C/c2ccccc2)cc(OC)c1C [Compound 6a, (E)-1,3-dimethoxy-2-methyl-5-styrylbenzene]
Colletotrichum acutatum
  zone of inhibition at 2000 µM: 5 mm
C. fragariae
  zone of inhibition at 2000 µM: 5 mm
C. gloeosporioides
  zone of inhibition at 2000 µM: 5.5 mm
Colletotrichum species
  inhibitory effect on Colletotrichum species (in words): strong inhibitory effect

## COc1cc(/C=C\c2ccccc2)cc(OC)c1C [Compound 7a, (Z)-1,3-dimethoxy-2-methyl-5-styrylbenzene]
Colletotrichum acutatum
  zone of inhibition at 2000 µM: 8 mm
C. fragariae
  zone of inhibition at 2000 µM: 6.5 mm
C. gloeosporioides
  zone of inhibition at 2000 µM: 7 mm
Colletotrichum species
  inhibitory effect on Colletotrichum species (in words): strong inhibitory effect

## COc1cc(/C=C\c2ccc(F)cc2)cc(OC)c1C [Compound 7e, (Z)-1,3-dimethoxy-5-(4-fluorostyryl)-2-methylbenzene]
Colletotrichum acutatum
  zone of inhibition at 2000 µM: 6 mm
C. fragariae
  zone of inhibition at 2000 µM: 6 mm
C. gloeosporioides
  zone of inhibition at 2000 µM: 6 mm
Colletotrichum species
  inhibitory effect on Colletotrichum species (in words): strong inhibitory effect

## COc1cc(/C=C\c2ccc(O)c(CC=C(C)C)c2)cc(OC)c1 [Compound 12, (Z)-4-(3,5-dimethoxystyryl)-2-(3-methylbut-2-en-1-yl)phenol]
Ae. aegypti larvae; 1-day-old larvae, 24 hours
  LC50 (LD50 converted to μM): 49.93 µM
Ae. aegypti larvae; [7]
  LD50 (95% CI): 16.2^b ppm
  LD90 (95% CI): 37.9 ppm
Ae. aegypti larvae; screening at 100, 50 and 25 ppm
  larvicidal activity (in words): high larvicidal activity
[1]; ORL and PR strains
  effectiveness against larvae (in words): highly effective
[1]; ORL strain, 0.1 μg/μl
  Percent Mortality: 66.7 ± 23.1%
[1]; ORL strain, 0.25 μg/μl
  Percent Mortality: 93.3 ± 11.5%
[1]; ORL strain, 0.5 μg/μl
  Percent Mortality: 93.3 ± 11.5%
[1]; ORL strain, 1.0 μg/μl
  Percent Mortality: 93.3 ± 11.5%
[1]; PR strain, 0.1 μg/μl
  Percent Mortality: 73.3 ± 11.5%
[1]; PR strain, 0.25 μg/μl
  Percent Mortality: 73.3 ± 11.5%
[1]; PR strain, 0.5 μg/μl
  Percent Mortality: 93.3 ± 11.5%
[1]; PR strain, 1.0 μg/μl
  Percent Mortality: 93.3 ± 11.5%
[2]
  effectiveness against adult mosquitoes (in words): somewhat effective
[3]
  IC50: 41.8 µM
  MIC: 61.7 µM (≈ 20 µg/mL)
[4]
  IC50: 17 µM
  MIC: 30.8 µM (≈ 10 µg/mL)
[5]
  IC50: 13 µM
  MIC: 30.8 µM (≈ 10 µg/mL)
[6]
  IC50: 50.4 µM
  MIC: 61.7 µM (≈ 20 µg/mL)
